Data on 14 compounds can be found in US20030114456A1, “Novel heterocylic compounds with anti-inflamatory activity” (priority 2000, published 2003).

One experiment concerns the target T1, human COX-2 (Homo sapiens, UniProt P35354).
T1 construct: human COX-2 (143.98.2 from human osteosarcoma), respectively; endogenous in cells; host or cells: 143.98.2 (human osteosarcoma)
T1 sequence (P35354 18-604): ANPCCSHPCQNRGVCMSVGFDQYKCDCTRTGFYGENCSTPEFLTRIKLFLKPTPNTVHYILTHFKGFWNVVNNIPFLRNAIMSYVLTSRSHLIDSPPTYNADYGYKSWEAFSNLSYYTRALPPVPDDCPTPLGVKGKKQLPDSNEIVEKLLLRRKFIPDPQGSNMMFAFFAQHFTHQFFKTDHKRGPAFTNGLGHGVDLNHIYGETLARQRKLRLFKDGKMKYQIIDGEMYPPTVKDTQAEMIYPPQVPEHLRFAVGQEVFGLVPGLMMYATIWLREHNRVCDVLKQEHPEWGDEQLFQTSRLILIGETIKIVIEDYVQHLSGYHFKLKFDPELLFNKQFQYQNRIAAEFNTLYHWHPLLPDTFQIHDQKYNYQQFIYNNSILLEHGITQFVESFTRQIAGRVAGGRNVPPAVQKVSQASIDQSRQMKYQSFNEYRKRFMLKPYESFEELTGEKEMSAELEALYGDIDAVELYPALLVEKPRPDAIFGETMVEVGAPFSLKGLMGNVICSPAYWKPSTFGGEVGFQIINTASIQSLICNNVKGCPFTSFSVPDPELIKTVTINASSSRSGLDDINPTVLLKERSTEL
Kind of experiment: Inhibition of COX-2 activity (PGE2 production after arachidonic acid) in 143.98.2 osteosarcoma cells. In kind it is cell-based. To be noted: 0.1 μM test compound, PGE2 production after 10 μM arachidonic acid. As for the experimental part: (§1) Inhibition of cyclooxygenase-1 (COX-1) and cyclooxygenase-2 (COX-2) Activity in Human Cell Lines
(§2) The inhibition of COX-1 and COX-2 is determined by assessing the PGE2 production after stimulation with arachidonic acid in cell lines expressing human COX-1 (U-937 from human histiocitic lymphoma) and human COX-2 (143.98.2 from human osteosarcoma), respectively.
(§3) The osteosarcoma-derived cells were cultured in 1 mL of DMEM culture medium supplemented with 10% fetal calf serum, in 24-well multidishes until confluence. U-937 cells were cultured in RPMI medium supplemented with 10% fetal calf serum in flasks.
(§4) To evaluate COX-2 activity, the medium was removed and replaced with Hepes-buffered saline solution (HBSS) without Ca^2+/Mg^2+ (2×10^5 cells/well). To evaluate COX-1 activity, the medium was removed and U-937 cells were resuspended to a final density of 3×10^6 cells/mL in HBSS without Ca^2+/Mg^2+ (1 mL/well, in 24-well multidishes). 1 μL of a solution of the test compound dissolved in DMSO or vehicle was added, and the samples were incubated for 15 min at 37° C. (5% CO2 and 95% humidity). Arachidonic acid was added (final concentration: 10 μM) and the samples were incubated for 10 min more. Next the reactions were quenched by adding indomethacin (8 mM, 30 μL). The amount of PGE2 in the supernatant was determined by specific enzymatic immunoassay (Kit Prostaglandin E2, Biotrak EIA system RPN222, Amersham Pharmacia Biotech). All the assays were performed in triplicate.
(§5) The results obtained with representative compounds of the present invention are shown in the following table, where the % of inhibition of COX-1 and COX-2 activity at a concentration of 0.1 μM of test compound are reported.

The next experiment has as its target T2, human COX-1 (Homo sapiens, UniProt P23219).
T2 construct: cell lines expressing human COX-1 (U-937 from human histiocitic lymphoma); endogenous in cells; host or cells: U-937 (human histiocytic lymphoma)
Briefly: Inhibition of COX-1 activity (PGE2 production after arachidonic acid) in U-937 cells. To be noted: 0.1 μM test compound, PGE2 production after 10 μM arachidonic acid. In kind it is cell-based. The protocol:
as §1, §2, §3, §4, §5

As usually defined, the inhibition is the relative decrease from the control value, in per cent. High values mean a strong effect, low ones a weak effect.

Counter-ions that a name gives are not always drawn.

T2 sequence (P23219 24-599): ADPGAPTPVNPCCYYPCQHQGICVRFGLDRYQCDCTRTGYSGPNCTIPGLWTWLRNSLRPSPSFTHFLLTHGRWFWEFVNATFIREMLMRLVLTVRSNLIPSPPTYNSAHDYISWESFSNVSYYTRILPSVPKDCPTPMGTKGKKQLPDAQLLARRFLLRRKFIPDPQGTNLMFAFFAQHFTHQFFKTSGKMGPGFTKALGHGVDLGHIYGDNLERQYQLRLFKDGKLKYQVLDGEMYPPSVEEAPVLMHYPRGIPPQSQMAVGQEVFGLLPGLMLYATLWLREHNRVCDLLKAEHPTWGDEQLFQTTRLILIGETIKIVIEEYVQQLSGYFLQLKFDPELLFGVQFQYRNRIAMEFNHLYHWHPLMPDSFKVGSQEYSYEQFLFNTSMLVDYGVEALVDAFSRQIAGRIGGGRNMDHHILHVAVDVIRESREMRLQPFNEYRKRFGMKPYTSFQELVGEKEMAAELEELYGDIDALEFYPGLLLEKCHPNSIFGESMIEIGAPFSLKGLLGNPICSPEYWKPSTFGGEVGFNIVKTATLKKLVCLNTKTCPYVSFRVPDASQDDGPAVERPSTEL

Take `CS(=O)(=O)c1ccc(C2=C(c3ccc(N4CCCC4)c(Cl)c3)C(=O)OC2)cc1` [Example 16, 3-[3-Chloro-4-(1-pyrrolidinyl)phenyl]-4-(4-methylsulfonylphenyl)-5H-furan-2-one]: the inhibition at 0.1 µM amounted to 93% on human COX-2 and 0% at human COX-1.

As to `CS(=O)(=O)c1ccc(-n2cnc(Cl)c2-c2ccc(N3CCOC3=O)cc2)cc1` [Example 9, 4-Chloro-1-(4-methylsulfonylphenyl)-5-[4-(2-oxooxazolidin-3-yl)phenyl]imidazole], the results for the inhibition at 0.1 µM against human COX-2 and at human COX-1 were 72% and 0%, respectively.

For `CS(=O)(=O)c1ccc(-n2cnc(Cl)c2-c2ccc(N3C(=O)CCC3=O)cc2)cc1` [Example 7, 4-Chloro-1-(4-methylsulfonylphenyl)-5-[4-(2,5-dioxopyrrolidin-1-yl)phenyl]imidazole], the inhibition at 0.1 µM worked out at 72% against human COX-2 and 0% at human COX-1.

For `NS(=O)(=O)c1ccc(-n2cnc(Cl)c2-c2ccc(N3CCCC3)cc2)cc1` [Example 5, 4-[4-Chloro-5-[4-(1-pyrrolidinyl)phenyl]imidazol-1-yl]benzenesulfonamide, hydrochloride], the inhibition at 0.1 µM on human COX-2 came to 70%; against human COX-1, 0%.

With `CS(=O)(=O)c1ccc(-n2cnc(Cl)c2-c2ccc(N3CC=CC3=O)cc2)cc1` [Example 8, 4-Chloro-1-(4-methylsulfonylphenyl)-5-[4-(2-oxo-3-pyrrolin-1-yl)phenyl]imidazole], the figures for the inhibition at 0.1 µM against human COX-2 and against human COX-1 were 76% and 0%, respectively.

In the case of `CS(=O)(=O)c1ccc(C2=C(c3ccc(N4CCCC4)cc3)C(=O)OC2)cc1` [Example 15, 4-(4-Methylsulfonylphenyl)-3-[4-(1-pyrrolidinyl)phenyl]-5H-furan-2-one], the inhibition at 0.1 µM at human COX-2 worked out at 81%; against human COX-1 it was 17%.

`CS(=O)(=O)c1ccc(-n2cnc(Cl)c2-c2ccc(N3CCCC3)c(Cl)c2)cc1` [Example 6, 4-Chloro-5-[3-chloro-4-(1-pyrrolidinyl)phenyl]-1-(4-methylsulfonylphenyl)imidazole]: the inhibition at 0.1 µM against human COX-2 worked out at 89%; against human COX-1 it was 0%.

As for `CS(=O)(=O)c1ccc(-n2cnc(Cl)c2-c2ccc(N3CCCC3)cc2)cc1` [Example 1, 4-Chloro-1-(4-methylsulfonylphenyl)-5-[4-(1-pyrrolidinyl)phenyl]imidazole], the inhibition at 0.1 µM against human COX-2 came out at 61%; against human COX-1 it was 0%.

Turning to `CS(=O)(=O)c1ccc(-n2cnc(Cl)c2-c2ccc(N3CCCC3)nc2)cc1` [Example 12, 4-Chloro-1-(4-methylsulfonylphenyl)-5-[6-(1-pyrrolidinyl)-3-pyridyl]imidazole], the inhibition at 0.1 µM against human COX-2 worked out at 79%; on human COX-1, 0%.

On to `CS(=O)(=O)c1ccc(-n2cnc(Cl)c2-c2ccc(N3CCC(O)C3)cc2)cc1` (stereo not shown) [Example 3, 4-Chloro-5-[4-(3-hydroxypyrrolidin-1-yl)phenyl]-1-(4-methylsulfonylphenyl)imidazole], for which the inhibition at 0.1 µM on human COX-2 stood at 75%; on human COX-1, 11%.

With `CS(=O)(=O)c1ccc(C2=C(c3ccc(N4CC=CC4=O)cc3)C(=O)OC2)cc1` [Example 14, 4-(4-Methylsulfonylphenyl)-3-[4-(2-oxo-3-pyrrolin-1-yl)phenyl]-5H-furan-2-one], the inhibition at 0.1 µM on human COX-2 was 49%; at human COX-1, 0%.

As to `CC1CCCN1c1ccc(-c2c(Cl)ncn2-c2ccc(S(C)(=O)=O)cc2)cc1` (stereo not shown) [Example 4, 4-Chloro-5-[4-(2-methylpyrrolidin-1-yl)phenyl]-1-(4-methylsulfonylphenyl)imidazole], the inhibition at 0.1 µM against human COX-2 was 72%; at human COX-1 it was 0%.

`CS(=O)(=O)c1ccc(C2=C(c3ccc(N4CCCC4)nc3)C(=O)OC2)cc1` [Example 17, 4-(4-Methylsulfonylphenyl)-3-[6-(1-pyrrolidinyl)-3-pyridyl]-5H-furan-2-one]: the inhibition at 0.1 µM on human COX-2 was determined as 81%; against human COX-1 it was 0%.

In the case of `CS(=O)(=O)c1ccc(-n2cnc(Cl)c2-c2ccc(N3CCCC3=O)cc2)cc1` [Example 10, 4-Chloro-1-(4-methylsulfonylphenyl)-5-[4-(2-oxopyrrolidin-1-yl)phenyl]imidazole], the inhibition at 0.1 µM amounted to 61% against human COX-2 and 0% at human COX-1.
